Assay results taken from patent US8957064B2, “Fused pyrimidines” (Bayer Intellectual Property GmbH, priority 2009, dated 2015).

What was measured:
[1] = target: His-tagged human recombinant kinase full-length Akt2 activated by PDK1 (Homo sapiens (Human), UniProt P31751); assay: Akt2 kinase assay (Akt2 TR-FRET assay, Biological Assay 2.0); format: biochemical; details: 10 μM ATP, 1 μM biotinylated peptide substrate, 60 min at 22° C.
From the text: Biological Assay 2.0: Akt2 Kinase Assay
Akt2 inhibitory activity of compounds of the present invention was quantified employing the Akt2 TR-FRET assay as described in the following paragraphs.
(§1) His-tagged human recombinant kinase full-length Akt2 expressed in insect cells and activated by PDK1 was purchased form Invitrogen (part number PV 3975). As substrate for the kinase reaction the biotinylated peptide biotin-Ahx-KKLNRTLSFAEPG (C-terminus in amide form) was used which can be purchased e.g. from the company Biosynthan GmbH (Berlin-Buch, Germany).
(§2) For the assay 50 nl of a 100 fold concentrated solution of the test compound in DMSO was pipetted into a black low volume 384 well microtiter plate (Greiner Bio-One, Frickenhausen, Germany), 2 μl of a solution of Akt2 in assay buffer [50 mM TRIS/HCl pH 7.5, 5 mM MgCl2, 1 mM dithiothreitol, 0.02% (v/v) Triton X-100 (Sigma)] were added and the mixture was incubated for 15 min at 22° C. to allow prebinding of the test compounds to the enzyme before the start of the kinase reaction. Then the kinase reaction was started by the addition of 3 μl of a solution of adenosine-tri-phosphate (ATP, 16.7 μM=>final conc. in the 5 μl assay volume is 10 μM) and substrate (1.67 μM=>final conc. in the 5 μl assay volume is 1 μM) in assay buffer and the resulting mixture was incubated for a reaction time of 60 min at 22° C. The concentration of Akt2 in the assay was adjusted depending of the activity of the enzyme lot and was chosen appropriate to have the assay in the linear range, typical enzyme concentrations were in the range of about 0.2 ng/μl (final conc. in the 5 μl assay volume).
(§3) The reaction was stopped by the addition of 5 μl of a solution of HTRF detection reagents (200 nM streptavidine-XL665 [Cisbio] and 1.5 nM anti-phosho-Serine antibody [Millipore, cat. #35-001] and 0.75 nM LANCE Eu-W 1024 labeled anti-mouse IgG antibody [Perkin Elmer]) in an aqueous EDTA-solution (100 mM EDTA, 0.1% (w/v) bovine serum albumin in 50 mM HEPES/NaOH pH 7.5).
(§4) The resulting mixture was incubated 1 h at 22° C. to allow the binding of the biotinylated phosphorylated peptide to the streptavidine-XL665 and the antibodies. Subsequently the amount of phosphorylated substrate was evaluated by measurement of the resonance energy transfer from the anti-mouse-IgG-Eu-Chelate to the streptavidine-XL665. Therefore, the fluorescence emissions at 620 nm and 665 nm after excitation at 350 nm was measured in a TR-FRET reader, e.g. a Rubystar (BMG Labtechnologies, Offenburg, Germany) or a Viewlux (Perkin-Elmer). The ratio of the emissions at 665 nm and at […] was taken as the measure for the amount of phosphorylated substrate. The data were normalised (enzyme reaction without inhibitor=0% inhibition, all other assay components but no enzyme=100% inhibition).

[2] = target: His-tagged human recombinant kinase full-length Akt1 (Homo sapiens (Human), UniProt P31749); assay: Akt1 kinase assay (Akt1 TR-FRET assay, Biological Assay 1.0); format: biochemical; details: 10 μM ATP, 1 μM biotinylated peptide substrate, 60 min at 22° C.
His-tagged human recombinant kinase full-length Akt1, sequence (P31749 whole entry): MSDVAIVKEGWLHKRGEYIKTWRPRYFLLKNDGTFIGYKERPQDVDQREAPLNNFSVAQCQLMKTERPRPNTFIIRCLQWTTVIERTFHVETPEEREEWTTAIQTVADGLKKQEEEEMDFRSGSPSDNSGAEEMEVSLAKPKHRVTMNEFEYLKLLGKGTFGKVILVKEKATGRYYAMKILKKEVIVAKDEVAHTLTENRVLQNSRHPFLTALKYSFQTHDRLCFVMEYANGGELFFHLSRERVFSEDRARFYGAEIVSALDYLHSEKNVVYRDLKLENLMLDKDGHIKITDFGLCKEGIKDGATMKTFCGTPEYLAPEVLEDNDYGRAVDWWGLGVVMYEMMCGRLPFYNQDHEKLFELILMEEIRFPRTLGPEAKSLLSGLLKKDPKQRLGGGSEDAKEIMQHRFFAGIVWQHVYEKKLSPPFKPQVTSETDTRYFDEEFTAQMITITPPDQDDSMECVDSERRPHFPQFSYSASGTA
From the text: Biological Assay 1.0: Akt1 Kinase Assay
as §1, with “Akt1 inhibitory activity of compounds of the present invention may be quantified employing the Akt1 TR-FRET assay as described in the following paragraphs. His-tagged” for “His-tagged”, “Akt1” for “Akt2”, “cells” for “cells and activated by PDK1”, “3599).” for “3975).”
as §2, with “Akt1” for “Akt2”, “0.05” for “0.2”
as §3
as §4, with “HTRF” for “TR-FRET”

His-tagged human recombinant kinase full-length Akt2 activated by PDK1, sequence (P31751 whole entry): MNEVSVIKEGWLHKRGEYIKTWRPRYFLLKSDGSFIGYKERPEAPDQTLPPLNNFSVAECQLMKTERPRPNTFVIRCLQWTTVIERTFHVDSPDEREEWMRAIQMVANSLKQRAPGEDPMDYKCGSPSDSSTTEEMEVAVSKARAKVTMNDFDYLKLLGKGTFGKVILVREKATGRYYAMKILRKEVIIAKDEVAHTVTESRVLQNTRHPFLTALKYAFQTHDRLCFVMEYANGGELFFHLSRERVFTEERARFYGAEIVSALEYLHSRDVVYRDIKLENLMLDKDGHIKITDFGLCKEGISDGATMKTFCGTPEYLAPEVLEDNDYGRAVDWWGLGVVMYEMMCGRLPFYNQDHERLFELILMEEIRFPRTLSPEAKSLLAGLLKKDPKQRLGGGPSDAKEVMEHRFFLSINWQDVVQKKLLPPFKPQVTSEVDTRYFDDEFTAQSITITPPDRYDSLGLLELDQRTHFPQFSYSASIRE

Structure (SMILES) | IC50 [1] | IC50 [2]
Fc1ccc(-c2cn3ccnc3nc2-c2ccc(CN3CCC(c4n[nH]c(-c5cnccn5)n4)CC3)cc2)cc1 [Example 52.2, 6-(4-fluorophenyl)-7-{4-[4-(5-pyrazine-2-yl-1H-[1,2,4]triazole-3-yl]-piperidine-1-ylmethyl]-phenyl}-imidazo[1,2-a]pyrimidine] | 1440 nM | 186 nM
Cc1nc2nc(-c3ccc(CN4CCC(c5nc6ccc(F)cc6[nH]5)CC4)cc3)c(-c3ccccc3)cn2n1 [Example 13.0, 5-{4-[4-(6-fluoro-1H-benzoimidazol-2-yl)-piperidin-1-ylmethyl]-phenyl}-2-methyl-6-phenyl-[1,2,4]triazolo[1,5-a]pyrimidine] | 228 nM | 112 nM
N#Cc1ccc2nc(C3CCN(Cc4ccc(-c5nc6ccnn6cc5-c5ccccc5)cc4)CC3)[nH]c2c1 [Example 12.0, 2-{1-[4-(6-phenyl-pyrazolo[1,5-a]pyrimidin-5-yl)-benzyl]-piperidin-4-yl}-3H-benzimidazol-5-carbonitrile] | 316 nM | 39 nM
Fc1ccc(-c2cn3ccnc3nc2-c2ccc(CN3CCC(c4cnc5ccccc5n4)CC3)cc2)cc1 [Example 34.0, 2-(1-{4-[6-(4-fluorophenyl)-imidazo[1,2-a]pyrimidin-7-yl]-benzyl}-piperidine-4-yl)-quinoxaline] | 2290 nM | 365 nM
Cc1nc2nc(-c3ccc(CN4CCC(n5ncc6c(N)ncnc65)CC4)cc3)c(-c3ccccc3)cn2n1 [Example 22.0, 1-{1-[4-(2-methyl-6-phenyl-[1,2,4]-triazolo[1,5-a]pyrimidin-5-yl)benzyl]-piperidin-4-yl}-1H-pyrazolo[3,4-d]pyrimidin-4-ylamine] | 417 nM | 288 nM
CNc1c(-c2ccccc2)c(-c2ccc(CN3CC(c4n[nH]c(-c5ccccn5)n4)C3)cc2)nc2nc(-c3ccccn3)nn12 [Example 67.0] | 145 nM | 29 nM
COC(=O)c1cn2cc(-c3ccccc3)c(-c3ccc(CN4CC(c5n[nH]c(-c6cccc(C)n6)n5)C4)cc3)nc2n1 [Example 74.0, 7-(4-{3-[5-(6-methylpyridine-2-yl)-1H-[1,2,4]triazole-3-yl]-azetidine-1-ylmethyl}-phenyl)-6-phenyl-imidazo[1,2-a]pyrimidine-2-carboxylic acid methyl ester] | 14 nM | 12 nM
N#Cc1ccc2nc(C3CCN(Cc4ccc(-c5nc6nccn6cc5-c5ccccc5)cc4)CC3)[nH]c2c1 [Example 9.0, 2-{1-[4-(6-Phenyl-imidazo[1,2-a]pyrimidin-7-yl)-benzyl]-piperidin-4-yl}-3H-benzimidazole-5-carbonitrile] | 426 nM | 83 nM
Cc1nc2nc(-c3ccc(CN4CCC(c5nc6cccnc6[nH]5)CC4)cc3)c(-c3ccccc3)cn2n1 [Example 23.0, 5-{4-[4-(3H-imidazo[4,5-b]pyridin-2-yl)-piperidin-1-ylmethyl]-phenyl}-2-methyl-6-phenyl-[1,2,4]triazolo[1,5-a]pyrimidine] | 759 nM | 315 nM
Cc1nc2nc(-c3ccc(CN4CCC(c5n[nH]c(-c6ccccn6)n5)C4)cc3)c(-c3ccccc3)cn2n1 (racemic) [Example 24.0, (±)-2-methyl-6-phenyl-5-{4-[3-(5-pyridin-2-yl-1H-[1,2,4]triazol-3-yl)-pyrrolidin-1-ylmethyl]-phenyl}-[1,2,4]triazolo[1,5-a]pyrimidine] | 435 nM | 44 nM
Fc1ccc(-c2cn3ccnc3nc2-c2ccc(CN3CC(c4n[nH]c(-c5ccccn5)n4)C3)cc2)cc1 [Example 33.0, 6-(4-fluorophenyl)-7-{4-[3-(5-pyridine-2-yl-1H-[1,2,4]triazole-3-yl]-azetidine-1-ylmethyl]-phenyl}-imidazo[1,2-a]pyrimidine] | 253 nM | 26 nM
CNc1c(-c2ccccc2)c(-c2ccc(CN3CC(c4n[nH]c(-c5ccccn5)n4)C3)cc2)nc2ncc(Br)n12 [Example 59.0, (3-bromo-6-phenyl-7-{4-{3-[5-(pyridine-2-yl)-1H-[1,2,4]triazole-3-yl)-azetidine-1-ylmethyl]-phenyl}-imidazo[1,2-a]pyrimidin-5-yl)-methylamine] | 128 nM | 42 nM
COC(=O)c1cnn2cc(-c3c(F)cccc3F)c(-c3ccc(CN4CC(c5n[nH]c(-c6cccc(C)n6)n5)C4)cc3)nc12 [Example 27.0, 6-(2,6-difluorophenyl)-5-(4-{3-[5-(6-methylpyridine-2-yl)-1H-[1,2,4]triazole-3-yl]-azetidine-1-ylmethyl}-phenyl)-pyrazolo[1,5-a]pyrimidine-3-carboxylic acid methyl ester] | 115 nM | 12 nM
COc1nn2cc(-c3c(F)cccc3F)c(-c3ccc(CN4CCC(c5n[nH]c(-c6ccccn6)n5)CC4)cc3)nc2c1CO [Example 63.3, (6-(2,6-difluorophenyl)-2-methoxy-5-{4-[4-(5-pyridine-2-yl-1H-[1,2,4]triazole-3-yl)-piperidine-1-ylmethyl]-phenyl}-pyrazolo[1,5-a]pyrimidin-3-yl)-methanol] | 97 nM | 10 nM
OCc1cnn2cc(-c3c(F)cccc3F)c(-c3ccc(CN4CC(c5n[nH]c(-c6ccccn6)n5)C4)cc3)nc12 [Example 62.0, (6-(2,6-difluorophenyl)-5-{4-[3-[5-pyridine-2-yl-1H-[1,2,4]triazole-3-yl)-azetidine-1-ylmethyl]-phenyl}-pyrazolo[1,5-a]pyrimidin-3-yl)-methanol] | 801 nM | 55 nM
c1ccc(-c2cn3nc(C4CC4)nc3nc2-c2ccc(CN3CC(c4n[nH]c(-c5ccccn5)n4)C3)cc2)cc1 [Example 70.0] | 5 nM | 7 nM
Cc1nc2nc(-c3ccc(CN4CCC(c5nc6ccc(C#N)cc6[nH]5)CC4)cc3)c(-c3ccccc3)cn2n1 [Example 20.0, 2-{1-[4-(2-methyl-6-phenyl-[1,2,4]triazolo[1,5-a]pyrimidin-5-yl)benzyl]-piperidin-4-yl}-3H-benzimidazole-5-carbonitrile] | 1010 nM | 525 nM
FC(F)(F)c1ccc2nc(C3CCN(Cc4ccc(-c5nc6ccnn6cc5-c5ccccc5)cc4)CC3)[nH]c2c1 [Example 17.0, 6-phenyl-5-{4-[4-(6-trifluoromethyl-1H-benzimidazol-2-yl)piperidin-1-ylmethyl]-phenyl}-pyrazolo[1,5-a]pyrimidine] | > 20000 nM | 338 nM
